Assay results as given in ChEMBL document CHEMBL3085671, “5,6-Dihydro-5-aza-2'-deoxycytidine potentiates the anti-HIV-1 activity of ribonucleotide reductase inhibitors” (Bioorg Med Chem, 2013).
Active and inactive are the calls of the source. The rule behind the calls is not given here.

Columns and labels:
[1] = tested on: Human immunodeficiency virus 1; assay: Antiviral activity against HIV1 infected in human U373-MAGI cells assessed as A to G mutation at 50 uM (reference value: 22%); type: functional
[2] = tested on: Human immunodeficiency virus 1; assay: Antiviral activity against HIV1 infected in human U373-MAGI cells assessed as G to A mutation at 50 uM (reference value: 27%); type: functional
[3] = Cytotoxicity against human U373-MAGI cells by CellTitre-Glo assay; type: cell-based
[4] = tested on: Human immunodeficiency virus 1; assay: Antiviral activity against HIV1 infected in human U373-MAGI cells incubated for 2 hrs prior to viral infection followed by compound washout after 24 hrs measured 72 hrs post-infection by flow cytometry; type: functional, organism-based; settings: Human immunodeficiency virus 1, U373-MAGI
[5] = tested on: Human immunodeficiency virus 1; assay: Antiviral activity against HIV1 infected in human U373-MAGI cells assessed as increase in mutant frequency incubated for 2 hrs prior to viral infection followed by compound washout after 24 hrs measured 72 hrs post-infection by flow cytometry; type: functional, organism-based
[6] = tested on: Human immunodeficiency virus 1; assay: Antiviral activity against HIV1 infected in human U373-MAGI cells assessed as C to T mutation at 50 uM (reference value: 13%); type: functional
[7] = tested on: Human immunodeficiency virus 1; assay: Antiviral activity against HIV1 infected in human U373-MAGI cells assessed as T to C mutation at 50 uM (reference value: 18%); type: functional
[8] = tested on: Human immunodeficiency virus 1; assay: Antiviral activity against HIV1 infected in human U373-MAGI cells assessed as induction of mutations at 50 uM (reference value: 18%); type: functional
[9] = tested on: Human immunodeficiency virus 1; assay: Antiviral activity against HIV1 infected in human U373-MAGI cells assessed as A to G mutation at 20 nM (reference value: 22%); type: functional
[10] = tested on: Human immunodeficiency virus 1; assay: Antiviral activity against HIV1 infected in human U373-MAGI cells assessed as G to A mutation at 20 nM (reference value: 27%); type: functional
[11] = tested on: Human immunodeficiency virus 1; assay: Antiviral activity against HIV1 infected in human U373-MAGI cells assessed as C to T mutation at 20 nM (reference value: 13%); type: functional
[12] = tested on: Human immunodeficiency virus 1; assay: Antiviral activity against HIV1 infected in human U373-MAGI cells assessed as T to C mutation at 20 nM (reference value: 18%); type: functional
[13] = tested on: Human immunodeficiency virus 1; assay: Antiviral activity against HIV1 infected in human U373-MAGI cells assessed as induction of mutations at 20 nM (reference value: 18%); type: functional
[14] = tested on: Human immunodeficiency virus 1; assay: Antiviral activity against HIV1 assessed as viral infection; type: functional, organism-based
[15] = Selectivity index, ratio of CC50 for human U373-MAGI cells to EC50 for HIV1 infected in human U373-MAGI cells; type: toxicity, cell-based; settings: read-out: Ratio CC50/EC50
[16] = tested on: Human immunodeficiency virus 1; assay: Antiviral activity against HIV1 infected in human U373-MAGI cells assessed as A to G mutation at 200 uM (reference value: 22%); type: functional
[17] = tested on: Human immunodeficiency virus 1; assay: Potentiation of resveratrol-induced antiviral activity against HIV1 infected in human U373-MAGI cells G to A mutation at 200 uM (reference value: 27%); type: functional
[18] = tested on: Human immunodeficiency virus 1; assay: Potentiation of gemcitabine-induced antiviral activity against HIV1 infected in human U373-MAGI cells G to A mutation at 5 uM (reference value: 27%); type: functional
[19] = Cytotoxicity against human U373-MAGI cells up to 200 uM by CellTitre-Glo assay; type: cell-based
[20] = tested on: Human immunodeficiency virus 1; assay: Potentiation of deferoxamine-induced antiviral activity against HIV1 infected in human U373-MAGI cells at 200 uM incubated for 2 hrs prior to viral infection followed by compound washout after 24 hrs measured 72 hrs post-infection by flow cytometry; type: functional, organism-based; settings: Human immunodeficiency virus 1, U373-MAGI
[21] = tested on: Human immunodeficiency virus 1; assay: Potentiation of gemcitabine-induced antiviral activity against HIV1 infected in human U373-MAGI cells at 5 uM incubated for 2 hrs prior to viral infection followed by compound washout after 24 hrs measured 72 hrs post-infection by flow cytometry; type: functional, organism-based; settings: Human immunodeficiency virus 1, U373-MAGI
[22] = tested on: Human immunodeficiency virus 1; assay: (§1) Potentiation of deferoxamine-induced antiviral activity against HIV1 infected in human U373-MAGI cells assessed as increase in mutant frequency at 5 to 200 uM incubated for 2 hrs prior to viral infection followed by compound washout after 24 hrs measured 72 hrs post-infection by flow cytometry relative to control; type: functional
[23] = tested on: Human immunodeficiency virus 1; assay: as §1, with “resveratrol-induced” for “deferoxamine-induced”; type: functional
[24] = tested on: Human immunodeficiency virus 1; assay: Potentiation of deferoxamine-induced antiviral activity against HIV1 infected in human U373-MAGI cells incubated for 2 hrs prior to viral infection followed by compound washout after 24 hrs measured 72 hrs post-infection by flow cytometry; type: functional, organism-based
[25] = tested on: Human immunodeficiency virus 1; assay: Potentiation of resveratrol-induced antiviral activity against HIV1 infected in human U373-MAGI cells at 200 uM incubated for 2 hrs prior to viral infection followed by compound washout after 24 hrs measured 72 hrs post-infection by flow cytometry; type: functional, organism-based; settings: Human immunodeficiency virus 1, U373-MAGI
[26] = tested on: Human immunodeficiency virus 1; assay: Potentiation of resveratrol-induced antiviral activity against HIV1 infected in human U373-MAGI cells incubated for 2 hrs prior to viral infection followed by compound washout after 24 hrs measured 72 hrs post-infection by flow cytometry; type: functional, organism-based
[27] = tested on: Human immunodeficiency virus 1; assay: Inhibition of gemcitabine-induced antiviral activity against HIV1 infected in human U373-MAGI cells assessed as increase in mutant frequency incubated for 2 hrs prior to viral infection followed by compound washout after 24 hrs measured 72 hrs post-infection by flow cytometry relative to gemcitabine; type: functional, organism-based
[28] = tested on: Human immunodeficiency virus 1; assay: as §1, with “gemcitabine-induced” for “deferoxamine-induced”, “25” for “5 to 200”; type: functional
[29] = tested on: Human immunodeficiency virus 1; assay: Inhibition of gemcitabine-induced antiviral activity against HIV1 infected in human U373-MAGI cells at 100 to 200 uM incubated for 2 hrs prior to viral infection followed by compound washout after 24 hrs measured 72 hrs post-infection by flow cytometry; type: functional, organism-based
[30] = tested on: Human immunodeficiency virus 1; assay: Potentiation of gemcitabine-induced antiviral activity against HIV1 infected in human U373-MAGI cells at 5 to 50 uM incubated for 2 hrs prior to viral infection followed by compound washout after 24 hrs measured 72 hrs post-infection by flow cytometry; type: functional, organism-based
[31] = tested on: Human immunodeficiency virus 1; assay: Antiviral activity against HIV1 infected in human U373-MAGI cells assessed as increase in mutant frequency at 5 to 200 uM incubated for 2 hrs prior to viral infection followed by compound washout after 24 hrs measured 72 hrs post-infection by flow cytometry; type: functional
[32] = tested on: Human immunodeficiency virus 1; assay: Antiviral activity against HIV1 infected in human U373-MAGI cells at 5 to 200 uM incubated for 2 hrs prior to viral infection followed by compound washout after 24 hrs measured 72 hrs post-infection by flow cytometry; type: functional, organism-based
[33] = tested on: Human immunodeficiency virus 1; assay: Potentiation of gemcitabine-induced antiviral activity against HIV1 infected in human U373-MAGI cells assessed as induction of mutations at 5 uM (reference value: 18%); type: functional
[34] = tested on: Human immunodeficiency virus 1; assay: Antiviral activity against HIV1 infected in human U373-MAGI cells assessed as G to A mutation at 200 uM (reference value: 27%); type: functional
[35] = tested on: Human immunodeficiency virus 1; assay: Potentiation of gemcitabine-induced antiviral activity against HIV1 infected in human U373-MAGI cells assessed as G to C mutation at 5 uM; type: functional
[36] = tested on: Human immunodeficiency virus 1; assay: Antiviral activity against HIV1 infected in human U373-MAGI cells assessed as G to C mutation at 200 uM; type: functional
[37] = tested on: Human immunodeficiency virus 1; assay: Potentiation of resveratrol-induced antiviral activity against HIV1 infected in human U373-MAGI cells assessed as C to T mutation at 200 uM (reference value: 13%); type: functional
[38] = tested on: Human immunodeficiency virus 1; assay: Potentiation of gemcitabine-induced antiviral activity against HIV1 infected in human U373-MAGI cells assessed as C to T mutation at 5 uM (reference value: 13%); type: functional
[39] = tested on: Human immunodeficiency virus 1; assay: Antiviral activity against HIV1 infected in human U373-MAGI cells assessed as C to T mutation at 200 uM (reference value: 13%); type: functional
[40] = tested on: Human immunodeficiency virus 1; assay: Potentiation of resveratrol-induced antiviral activity against HIV1 infected in human U373-MAGI cells assessed as T to C mutation at 200 uM (reference value: 18%); type: functional
[41] = tested on: Human immunodeficiency virus 1; assay: Potentiation of gemcitabine-induced antiviral activity against HIV1 infected in human U373-MAGI cells assessed as T to C mutation at 5 uM (reference value: 18%); type: functional
[42] = tested on: Human immunodeficiency virus 1; assay: Antiviral activity against HIV1 infected in human U373-MAGI cells assessed as T to C mutation at 200 uM (reference value: 18%); type: functional
[43] = tested on: Human immunodeficiency virus 1; assay: Potentiation of resveratrol-induced antiviral activity against HIV1 infected in human U373-MAGI cells assessed as A to G mutation at 200 uM (reference value: 22%); type: functional
[44] = tested on: Human immunodeficiency virus 1; assay: Potentiation of gemcitabine-induced antiviral activity against HIV1 infected in human U373-MAGI cells assessed as A to G mutation at 5 uM (reference value: 22%); type: functional
[45] = tested on: Human immunodeficiency virus 1; assay: Potentiation of resveratrol-induced antiviral activity against HIV1 infected in human U373-MAGI cells assessed as G to C mutation at 200 uM; type: functional
[46] = tested on: Human immunodeficiency virus 1; assay: Potentiation of gemcitabine-induced antiviral activity against HIV1 infected in human U373-MAGI cells assessed as induction of mutations at 200 uM (reference value: 18%); type: functional
[47] = tested on: Human immunodeficiency virus 1; assay: Antiviral activity against HIV1 infected in human U373-MAGI cells assessed as induction of mutations at 200 uM (reference value: 18%); type: functional

Oc1ccc(/C=C/c2cc(O)cc(O)c2)cc1 [RESVERATROL]
Activity [1]: 38% | Activity [2]: 18% | CC50 ([3]; U373-MAGI cells): > 400 µM | EC50 [4]: 99.6 µM | Activity [5]: Dose-dependent effect | Activity [6]: 4% | Activity [7]: 16% | Activity [8]: 22%

Nc1ccn([C@@H]2O[C@H](CO)[C@@H](O)C2(F)F)c(=O)n1 [GEMCITABINE]
Activity [9]: 24% | CC50 ([3]; u373-magi): 62 µM | Activity [5]: Dose-dependent effect | Activity [10]: 13% | Activity [11]: 13% | Activity [12]: 24% | Activity [13]: 24%

Nc1ncn([C@@H]2O[C@H](CO)[C@@H](O)[C@H]2O)c(=O)n1 [AZACITIDINE]
EC50 [14]: 53 µM

CC(=O)N(O)CCCCCNC(=O)CCC(=O)N(O)CCCCCNC(=O)CCC(=O)N(O)CCCCCN [DEFEROXAMINE]
selectivity ratio [15]: > 1 | CC50 ([3]; u373-magi): > 400 µM | EC50 [4]: 384 µM | Activity [5]: Dose-dependent effect

NC1=NC(=O)N([C@H]2C[C@H](O)[C@@H](CO)O2)CN1 [KP-1212]
Activity [16]: 18% | Activity [17]: 13% | Activity [18]: 18% | Activity [19]: Non-toxic | EC50 [20]: 248 µM | EC50 [21]: 0.0216 µM | fold change (FC) [22]: 4.7 | fold change (FC) [23]: 6.2 | Activity [24]: Dose-dependent effect | EC50 [25]: 52.8 µM | Activity [26]: Dose-dependent effect | inhibition [27]: Active | fold change (FC) [28]: 4.8 | inhibition [29]: Active | Activity [30]: Active | Activity [5]: Dose-dependent effect | fold change (FC) [31]: 1.6 | Activity [32]: Active | EC50 [14]: 0.01 µM | Activity [33]: 14% | Activity [34]: 24% | Activity [35]: 11% | Activity [36]: 22% | Activity [37]: 9% | Activity [38]: 12% | Activity [39]: 10% | Activity [40]: 10% | Activity [41]: 14% | Activity [42]: 8% | Activity [43]: 13% | Activity [44]: 32% | Activity [45]: 41% | Activity [46]: 14% | Activity [47]: 16%
